Experimental data taken from US12011427B2, “Methods of treating cancer” (Inspirna, Inc., priority 2019, dated 2024).
Read-outs that look alike come from different tables or passages of the source. Each block holds one molecule with its values, some of them ahead of it.

Columns and labels:
[1] = test system: advanced gastrointestinal tumors; assay: RGX-202 monotherapy or combination with FOLFIRI in subjects with advanced gastrointestinal tumors; format: in vivo, human
Method: Method: Subjects with advanced gastrointestinal tumors (e.g., locally advanced and unresectable, or metastatic) were administered multiple doses of orally administered RGX-202 as a monotherapy or in combination with irinotecan, folinic acid, and fluorouracil. In the monotherapy arm of the study, RGX-202 was administered orally twice or three times daily on days 1-28 of each 28-day cycle. The dose regimen was dependent on the cohort in which the patient was enrolled. In the combination arm of the study, RGX-202 was administered in the same way as described for the monotherapy arm in combination with FOLFIRI. FOLFIRI was administered by intravenous administration of irinotecan (180 mg/m^2) over 90 minutes concurrently with intravenous administration of folinic acid (400 mg/m^2) over 2 hours, followed by fluorouracil (5-FU) (400 mg/m^2) intravenous bolus and then 5-FU (2400 mg/m^2) intravenous infusion over 46 hours, on days 1 and 15 of each 28-day cycle. During the dose escalation, subjects were evaluated for pharmacokinetics (using the method as described in Example 1), pharmacodynamics, safety, and efficacy of the drug.

[2] = β-GPA plasma pharmacokinetics after RGX-202 BID dosing; format: in vivo, human; conditions: for AUC(0-t): read-out: Average AUC0-24
Method: Method: Subjects were administered RGX-202 (a highly compressible salt form of β-GPA) in a regimen of 600 mg BID, 1,200 mg BID, 2,400 mg BID, or 3,600 mg BID, and plasma samples were taken from the subjects and tested using the protocol described below for levels of β-GPA over the course of 24 hours after administration.
The analyte, β-GPA, and internal standard (IS), [13C415N3]-β-GPA, are extracted from 50.0 μL of human plasma by a protein precipitation extraction procedure. The extraction procedure begins with the addition of 50.0 μL of internal standard working solution to all wells except double blanks, which receive 50.0 μL of water. Next the plate is covered and vortexed. Then 500 μL of acetonitrile/methanol (50/50, v/v) is added to all wells. Next the plate is covered, vortexed and centrifuged. Using a Tomtec Quadra 4, 200 μL of the supernatant is transferred into a new plate. Then 300 μL acetonitrile/methanol (50/50, v/v) is added to all wells. The plate is then sealed and vortexed. The extracts are chromatographed under reverse phase conditions on a Luna HPLC column 50×2.0 mm, 3 μm column using a gradient system with 10 mM ammonium acetate in water and acetonitrile. The compounds are detected and quantified by tandem mass spectrometry in positive ion mode on a MDS Sciex API 4000 equipped with a Turbo Ionspray® interface.

Solubility of β-GPA = format: physicochemical
[3] = test system: liver metastasis in gastrointestinal cancers; conditions: particularly liver metastasis in gastrointestinal cancers; WO2014/071067; cited from earlier work
[4] = test system: animal models of noninsulin-dependent diabetes; conditions: animal models of noninsulin-dependent diabetes (rats, monkeys, hamsters); cited from earlier work
[5] = 1200 mg BID, human plasma, 1,200 mg BID
[6] = 2400 mg BID, human plasma, 2,400 mg BID
[7] = 3600 mg BID, human plasma, 3,600 mg BID

SMILES: [H]/N=C(\N)NCCC(=O)O [RGX-202]
subjects exhibiting a partial response ([1]; of the 10 subjects who received the monotherapy, at 3,600 mg BID after 40 weeks): one | subjects exhibiting stable disease ([1]; of the 10 subjects who received the monotherapy, at doses of 1,200 mg BID, 2,400 mg BID and 3,600 mg BID): three | objective activity ([1]; subjects with advanced gastrointestinal tumors): activities were observed | dose limiting toxicity ([1]; subjects with advanced gastrointestinal tumors, oral dose escalation, monotherapy or combination): did not exhibit dose limiting toxicity

Cmax [2, 5]: 4790 ng/mL | AUC(0-t) [2, 5]: 45.2 µg·h/mL | Cmax [2, 6]: 26800 ng/mL | AUC(0-t) [2, 6]: 165 µg·h/mL | Cmax [2, 7]: 47700 ng/mL | AUC(0-t) [2, 7]: 241 µg·h/mL | AUC Dose Acc. Ratio ([2]; human plasma, 600 mg BID): 1.0 | Cmax ([2]; human plasma, 600 mg BID): 1400 ng/mL | Cmax Dose Acc. Ratio ([2]; human plasma, 600 mg BID): 1.0 | Dose Normalized Average Cmax ([2]; human plasma, 600 mg BID): 1.2 ng/mL | Dose-Normalized Average AUC0-24 ([2]; human plasma, 600 mg BID): 13.1 ng·h/mL | AUC(0-t) ([2]; human plasma, 600 mg BID): 15.7 µg·h/mL | AUC Dose Acc. Ratio ([2]; human plasma, 1,200 mg BID): 1.4 | Cmax Dose Acc. Ratio ([2]; human plasma, 1,200 mg BID): 1.7 | Dose Normalized Average Cmax ([2]; human plasma, 1,200 mg BID): 2.0 ng/mL | Dose-Normalized Average AUC0-24 ([2]; human plasma, 1,200 mg BID): 18.8 ng·h/mL | AUC Dose Acc. Ratio ([2]; human plasma, 2,400 mg BID): 2.7 | Cmax Dose Acc. Ratio ([2]; human plasma, 2,400 mg BID): 4.8 | Dose Normalized Average Cmax ([2]; human plasma, 2,400 mg BID): 5.6 ng/mL | Dose-Normalized Average AUC0-24 ([2]; human plasma, 2,400 mg BID): 34.3 ng·h/mL | AUC Dose Acc. Ratio ([2]; human plasma, 3,600 mg BID): 2.6 | Cmax Dose Acc. Ratio ([2]; human plasma, 3,600 mg BID): 5.7 | Dose Normalized Average Cmax ([2]; human plasma, 3,600 mg BID): 6.6 ng/mL | Dose-Normalized Average AUC0-24 ([2]; human plasma, 3,600 mg BID): 33.5 ng·h/mL | solubility in organic solvents (Solubility of β-GPA; organic solvents): low solubility | solubility (Solubility of β-GPA; water): > 50 mg/mL
SMILES: N=C(N)NCCC(=O)O [β-GPA, β-Guanidinopropionic acid]
suppression of metastasis [3]: effective | effect on hyperglycemia [4]: ameliorate hyperglycemia
